According to patent publication US9290451B2 (Hoffmann-La Roche Inc., priority 2011, dated 2016):
Where two headings read alike, the source gives them in different places.

Key:
human CB2 receptors = human CB2 receptors (Homo sapiens (Human), UniProt P34972); experiment: cAMP assay, CHO cells expressing human CB2 receptors; format: cell-based
Protocol: (§1) CHO cells expressing human CB1 or CB2 receptors are seeded 17-24 hours prior to the experiment 50.000 cells per well in a black 96 well plate with flat clear bottom (Corning Costar #3904) in DMEM (Invitrogen No. 31331), 1×HT supplement, with 10% fetal calf serum and incubated at 5% CO2 and 37° C. in a humidified incubator. The growth medium was exchanged with Krebs Ringer Bicarbonate buffer with 1 mM IBMX and incubated at 30° C. for 30 min Compounds were added to a final assay volume of 100 μl and incubated for 30 min at 30° C. Using the cAMP-Nano-TRF detection kit the assay (Roche Diagnostics) was stopped by the addition of 50 μl lysis reagent (Tris, NaCl, 1.5% Triton X100, 2.5% NP40, 10% NaN3) and 50 μl detection solutions (20 μM mAb Alexa700-cAMP 1:1, and 48 μM Ruthenium-2-AHA-cAMP) and shaken for 2 h at room temperature. The time-resolved energy transfer is measured by a TRF reader (Evotec Technologies GmbH), equipped with a ND:YAG laser as excitation source. The plate is measured twice with the excitation at 355 nm and at the emission with a delay of 100 ns and a gate of 100 ns, total exposure time 10 s at 730 (bandwidth 30 nm) or 645 nm (bandwidth 75 nm), respectively. The FRET signal is calculated as follows: FRET=T730-Alexa730-P(T645-B645) with P═Ru730-B730/Ru645-B645, where T730 is the test well measured at […], T645 is the test well measured at 645 nm, B730 and B645 are the buffer controls at 730 nm and 645 nm, respectively. cAMP content is determined from the function of a standard curve spanning from 10 μM to 0.13 nM cAMP.
(§2) EC50 values were determined using Activity Base analysis (ID Business Solution, Limited). The EC50 values for a wide range of cannabinoid agonists generated from this assay for reference compounds were in agreement with the values published in the scientific literature.

human CB1 receptors = human CB1 receptors (Homo sapiens (Human), UniProt P21554); experiment: cAMP assay, CHO cells expressing human CB1 receptors; format: cell-based; settings: CHO cells expressing human CB1, cAMP; read-out: human CB1 EC50
Protocol: as §1, §2

[1] = CHO cells expressing human CB2, cAMP, read-out: human CB2 EC50

human CB2 receptors, sequence (P34972 whole entry): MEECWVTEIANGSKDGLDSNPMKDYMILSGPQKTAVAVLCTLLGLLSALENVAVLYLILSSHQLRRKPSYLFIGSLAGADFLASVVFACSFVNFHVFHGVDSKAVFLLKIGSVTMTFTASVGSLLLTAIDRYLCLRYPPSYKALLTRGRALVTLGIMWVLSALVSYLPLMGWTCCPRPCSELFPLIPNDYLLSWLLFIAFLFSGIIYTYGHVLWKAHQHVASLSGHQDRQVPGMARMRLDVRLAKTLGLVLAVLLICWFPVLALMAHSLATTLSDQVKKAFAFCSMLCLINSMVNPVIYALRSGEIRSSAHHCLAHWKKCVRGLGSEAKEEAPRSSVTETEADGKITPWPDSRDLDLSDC
human CB1 receptors, sequence (P21554 whole entry): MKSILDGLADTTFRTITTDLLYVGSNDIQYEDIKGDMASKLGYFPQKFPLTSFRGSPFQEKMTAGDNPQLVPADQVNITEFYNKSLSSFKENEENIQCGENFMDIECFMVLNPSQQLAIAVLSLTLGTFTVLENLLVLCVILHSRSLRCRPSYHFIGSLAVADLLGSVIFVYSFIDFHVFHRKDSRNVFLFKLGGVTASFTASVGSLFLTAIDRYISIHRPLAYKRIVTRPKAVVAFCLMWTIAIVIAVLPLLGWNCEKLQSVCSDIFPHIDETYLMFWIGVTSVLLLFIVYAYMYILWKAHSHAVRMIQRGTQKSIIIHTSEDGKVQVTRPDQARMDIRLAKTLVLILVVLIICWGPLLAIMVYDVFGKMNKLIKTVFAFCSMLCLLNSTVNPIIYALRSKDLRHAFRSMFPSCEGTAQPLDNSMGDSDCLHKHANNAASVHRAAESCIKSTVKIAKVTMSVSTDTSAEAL

Structure (SMILES)	EC50 (human CB2 receptors; [1]) [nM]	EC50 (human CB1 receptors) [µM]	EC50 (human CB2 receptors) [nM]
Cc1nc(C(NC(=O)c2cccc(-c3ccc(F)c(Cl)c3)n2)C2CC2)no1 (racemic) [Example 232, 6-(3-Chloro-4-fluoro-phenyl)-pyridine-2-carboxylic acid [cyclopropyl-(5-methyl-[1,2,4]oxadiazol-3-yl)-methyl]-amide]	15	1.63	–
O=C(N[C@@H](CC1CC1)C(=O)NN1CCC(O)C1)c1ccc(C2CC2)c(OCC2CC2)n1 (single isomer, unassigned; (+)) [Example 379]	–	–	26.4
O=C(N[C@@H](CC1CC1)C(=O)NN1CCC(O)C1)c1ccc(C2CC2)c(OCC2CC2)n1 (single isomer, unassigned; (-)) [Example 380]	584	> 10	–
COC(=O)C(C)(C)NC(=O)c1cccc(-c2cccc(Cl)c2)n1 [Example 1, Methyl 2-(6-(3-chlorophenyl)picolinamido)-2-methylpropanoate]	68.5	–	–
COC(=O)C(C)(C)NC(=O)c1cccc(-c2ccccc2Cl)n1 [Example 2, Methyl 2-(6-(2-chlorophenyl)picolinamido)-2-methylpropanoate]	57.7	–	–
Cc1nc(C(C)(C)NC(=O)c2cccc(-c3ccc(Cl)cc3)n2)no1 [Example 3, 6-(4-Chloro-phenyl)-pyridine-2-carboxylic acid [1-methyl-1-(5-methyl-[1,2,4]oxadiazol-3-yl)-ethyl]-amide]	341	> 10	–
COC(=O)C(C)(C)NC(=O)c1ccc(C)c(OCC(F)(F)F)n1 [Example 4, Methyl 2-methyl-2-(5-methyl-6-(2,2,2-trifluoroethoxy)picolinamido)propanoate]	77.2	–	–
COC(=O)C(C)(C)NC(=O)c1ccc(C2CC2)c(Nc2ccc(Cl)cc2Cl)n1 [Example 5, Methyl 2-(5-cyclopropyl-6-(2,4-dichlorophenylamino)picolinamido)-2-methylpropanoate]	434	–	–
COC(=O)C(C)(C)NC(=O)c1ccc(C)c(Nc2ccc(Cl)cc2Cl)n1 [Example 6, Methyl 2-(6-(2,4-dichlorophenylamino)-5-methylpicolinamido)-2-methylpropanoate]	376	–	–
COC(=O)C(C)(C)NC(=O)c1cccc(C2CCCCC2)n1 [Example 7, 2-[(6-Cyclohexyl-pyridine-2-carbonyl)-amino]-2-methyl-propionic acid methyl ester]	32.1	–	–
CC(C)(NC(=O)c1cccc(-c2cccc(Cl)c2)n1)c1ncco1 [Example 8, 6-(3-Chloro-phenyl)-pyridine-2-carboxylic acid (1-methyl-1-oxazol-2-yl-ethyl)-amide]	99.6	> 10	–
COC(=O)C(C)(C)NC(=O)c1ccc(C2CCOCC2)c(OCC2CC2)n1 [Example 9, 2-{[6-Cyclopropylmethoxy-5-(tetrahydro-pyran-4-yl)-pyridine-2-carbonyl]-amino}-2-methyl-propionic acid methyl ester]	55.8	> 10	–
Cc1nc(C(C)(C)NC(=O)c2ccc(C3CCOCC3)c(OCC3CC3)n2)no1 [Example 10, 6-Cyclopropylmethoxy-5-(tetrahydro-pyran-4-yl)-pyridine-2-carboxylic acid [1-methyl-1-(5-methyl-[1,2,4]oxadiazol-3-yl)-ethyl]-amide]	88.3	> 10	–
O=C(NN1CCCCC1)c1cccc(-c2cccc(Cl)c2)n1 [Example 11, 6-(3-Chloro-phenyl)-pyridine-2-carboxylic acid piperidin-1-ylamide]	63.6	> 10	–
CC(C)(NC(=O)c1cccc(-c2cccc(Cl)c2)n1)c1nccs1 [Example 12, 6-(3-Chloro-phenyl)-pyridine-2-carboxylic acid (1-methyl-1-thiazol-2-yl-ethyl)-amide]	105	> 10	–
COC(=O)C(C)(C)NC(=O)c1ccc(-c2cc[nH]n2)c(OCC2CC2)n1 [Example 13, 2-{[6-Cyclopropylmethoxy-5-(1H-pyrazol-3-yl)-pyridine-2-carbonyl]-amino}-2-methyl-propionic acid methyl ester]	426	> 10	–
CC(C)C[C@@H](CO)NC(=O)c1ccc(N2CCCC2)c(OCC2CC2)n1 [Example 14, 6-Cyclopropylmethoxy-5-pyrrolidin-1-yl-pyridine-2-carboxylic acid ((S)-1-hydroxymethyl-3-methyl-butyl)-amide]	3	> 10	–

Structure (SMILES)	EC50 (human CB2 receptors; [1]) [nM]	EC50 (human CB1 receptors) [µM]	EC50 (human CB2 receptors) [nM]
O=C(c1ccc(N2CCCC2)c(OCC2CC2)n1)N1CCS(=O)(=O)CC1 [Example 15]	95.9	> 10	–
O=C(c1ccc(N2CCCC2)c(OCC2CC2)n1)N1CCSCC1 [Example 16, (6-Cyclopropylmethoxy-5-pyrrolidin-1-yl-pyridin-2-yl)-thiomorpholin-4-yl-methanone]	16.6	> 10	–
CC(C)(NC(=O)c1cccc(-c2cccc(Cl)c2)n1)c1nnco1 [Example 17, 6-(3-Chloro-phenyl)-pyridine-2-carboxylic acid (1-methyl-1-[1,3,4]oxadiazol-2-yl-ethyl)-amide]	566	> 10	–
O=C(NC1CCCCC1)c1cccc(-c2cccc(Cl)c2)n1 [Example 18, 6-(3-Chloro-phenyl)-pyridine-2-carboxylic acid cyclohexylamide]	97	> 10	–
O=C(Nc1ccccc1)c1cccc(-c2cccc(Cl)c2)n1 [Example 19, 6-(3-Chloro-phenyl)-pyridine-2-carboxylic acid phenylamide]	415	> 10	–
O=C(Nc1ccccn1)c1cccc(-c2cccc(Cl)c2)n1 [Example 20, 6-(3-Chloro-phenyl)-pyridine-2-carboxylic acid pyridin-2-ylamide]	262	> 10	–
O=C(NC1CCOCC1)c1cccc(-c2cccc(Cl)c2)n1 [Example 21, 6-(3-Chloro-phenyl)-pyridine-2-carboxylic acid (tetrahydro-pyran-4-yl)-amide]	220	> 10	–
Cc1nsc(C(C)(C)NC(=O)c2cccc(-c3cccc(Cl)c3)n2)n1 [Example 22, 6-(3-Chloro-phenyl)-pyridine-2-carboxylic acid [1-methyl-1-(3-methyl-[1,2,4]thiadiazol-5-yl)-ethyl]-amide]	635	> 10	–
CCC(CC)(NC(=O)c1cccc(-c2cccc(Cl)c2)n1)C(=O)N(C)C [Example 23, 6-(3-Chloro-phenyl)-pyridine-2-carboxylic acid (1-dimethylcarbamoyl-1-ethyl-propyl)-amide]	48.2	> 10	–
O=C(NN1CCCCC1)c1cccc(C2CCCCC2)n1 [Example 24, 6-Cyclohexyl-pyridine-2-carboxylic acid piperidin-1-ylamide]	15.6	> 10	–
Cc1ccc(C(=O)N2CCCCC2)nc1S(=O)(=O)N1CCCCC1 [Example 25, [5-Methyl-6-(piperidine-1-sulfonyl)-pyridin-2-yl]-piperidin-1-yl-methanone]	291	> 10	–
CC1CC(NC(=O)c2cccc(-c3cccc(Cl)c3)n2)CCO1 (stereo not shown) [Example 26, 6-(3-Chloro-phenyl)-pyridine-2-carboxylic acid (2-methyl-tetrahydro-pyran-4-yl)-amide]	691	> 10	–
COC(=O)C(C)(C)NC(=O)c1ccc(N2CCCC2)c(OCC2CC2)n1 [Example 27, 2-[(6-Cyclopropylmethoxy-5-pyrrolidin-1-yl-pyridine-2-carbonyl)-amino]-2-methyl-propionic acid methyl ester]	4.6	> 10	–
Cc1cc(C(C)(C)NC(=O)c2cccc(-c3cccc(Cl)c3)n2)on1 [Example 28, 6-(3-Chloro-phenyl)-pyridine-2-carboxylic acid [1-methyl-1-(3-methyl-isoxazol-5-yl)-ethyl]-amide]	564	> 10	–
CCC(CC)(CO)NC(=O)c1cccc(-c2cccc(Cl)c2)n1 [Example 29, 6-(3-Chloro-phenyl)-pyridine-2-carboxylic acid (1-ethyl-1-hydroxymethyl-propyl)-amide]	324	> 10	–
O=C(NC1CCCOC1)c1cccc(-c2cccc(Cl)c2)n1 (stereo not shown) [Example 30, 6-(3-Chloro-phenyl)-pyridine-2-carboxylic acid (tetrahydro-pyran-3-yl)-amide]	658	> 10	–
O=C(c1ccc(N2CCCC2)c(OCC2CC2)n1)N1CC2(COC2)C1 [Example 31, (6-Cyclopropylmethoxy-5-pyrrolidin-1-yl-pyridin-2-yl)-(2-oxa-6-aza-spiro[3.3]hept-6-yl)-methanone]	423	> 10	–
